Data as given in paper PMC3709815, “Reconstructing a Flavodoxin Oxidoreductase with Early Amino Acids” (International Journal of Molecular Sciences, 2013).

Legend:
Type in all cases: binding
[1] = biological target: T1, Megasphaera elsdenii flavodoxin (apoflavodoxin) (Megasphaera elsdenii, UniProt P00321); test: far-UV circular dichroism of apo- and holoflavodoxin, reconstitution with FMN; details: oxidized state; holoprotein reconstituted with 1.0 mM FMN, 40 mM sodium phosphate pH 7.0
T1 construct: synthetic gene in pET28b(+) NdeI/BamHI, 6xHis tag kept, E. coli BL21(DE3); apoprotein by trichloroacetic acid

[2] = biological target: T2, Megasphaera elsdenii flavodoxin (apoflavodoxin) (Megasphaera elsdenii, UniProt P00321, C127V/C54A/F36V/F70L/F71L/F86V/M120V/M16L/M57V/M97L/W100V/W7V/W91V/W96V/Y6V/Y89V); test: fluorescence titration of FMN with apoflavodoxin (ex […] nm, em […] nm); details: read-out: Kd,ox
T2 construct: synthetic gene in pET28b(+) NdeI/BamHI, 6xHis tag kept, E. coli BL21(DE3); apoprotein by trichloroacetic acid

[3] = biological target: T2, Megasphaera elsdenii flavodoxin (apoflavodoxin); test: calculated from Kd,ox and redox potential Em, […] (anaerobic dithionite titration with redox dyes); details: read-out: Kd,hq

T2 sequence (P00321 other isoform, or with tags, fused parts or gaps with the stated changes): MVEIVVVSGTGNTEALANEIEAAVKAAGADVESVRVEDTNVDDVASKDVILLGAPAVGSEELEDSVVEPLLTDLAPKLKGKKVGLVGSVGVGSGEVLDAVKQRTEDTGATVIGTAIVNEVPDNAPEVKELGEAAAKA
T1 sequence (P00321 whole entry): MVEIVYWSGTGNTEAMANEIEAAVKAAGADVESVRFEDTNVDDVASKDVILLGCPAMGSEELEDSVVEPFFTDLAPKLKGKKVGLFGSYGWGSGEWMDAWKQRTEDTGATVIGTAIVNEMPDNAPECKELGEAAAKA

## Cc1cc2nc3c(=O)[nH]c(=O)nc-3n(C[C@H](O)[C@H](O)[C@H](O)COP(=O)(O)O)c2cc1C [FMN]
[1]
  far-UV circular dichroism of apo- and holoflavodoxin, reconstitution with FMN: conformation transition of mutant and wild-type protein induced by FMN binding is different
[2]
  Kd: 0.00292 mM

## Cc1cc2c(cc1C)N(C[C@H](O)[C@H](O)[C@H](O)COP(=O)(O)O)c1[nH]c(=O)[nH]c(=O)c1N2 [FMNhq]
[3]
  Kd: 43.6 mM
